US8318899B2, “Lytic domain fusion constructs and methods of making and using same” (Board of Supervisors of Louisiana State University and …, priority 2008, dated 2012)

How the values were obtained:
MDA-MB-435S xenograft = experiment: MDA-MB-435S xenograft, once weekly for 3 weeks (minimal effective dose); type: in vivo, Nu/Nu mice; conditions: H&E
Procedure: (§1) In vivo efficacy studies were conducted as monotherapy, or a combination therapy with standard of care treatments in nude mice bearing human breast cancer xenografts: MDA-MB435S.luc (s.c.), MCF-7 (estrogen receptor alpha positive), human ovarian cancer xenografts: OVCAR-3, (s.c.), human prostate cancer xenografts: PC-3 (androgen receptor negative).
(§2) Mice were sacrificed one week after the last injection and blood collected for chemistry panel, tumor weights and body weights were recorded. Part of the tumors were fixed in PBS buffered 10% formalin for histological evaluation.
To determine the minimal effective dose necessary to reduce MDA-MB-435S xenograft weights in a single dose regimen, Nu/Nu female mice, outbred strain, age 5 weeks (Charles River), were injected (s.c.) into the interscapular region with a MDA-MB435S (passage #249)/Matrigel suspension (2.4×10^6 cells/mouse) [Leuschner 2006].
Each group consisted of 16 mice, which were injected once a week for 3 weeks. […] During the entire study tumor volumes were recorded twice weekly. […]
Treatment response was determined by tumor weights and tumor weight change at necropsy compared to saline controls and untargeted CLIP71 treatment. […] Statistical evaluation of data sets were conducted in GraphPad Prizm 4 and significance calculated by Wilcoxon signed-rank test.

PC-3 xenograft = experiment: PC-3 prostate cancer xenograft; type: in vivo, Nu/Nu mice
Procedure: PC-3 xenografts untreated cause significant weight loss in mice.
In brief, Nu/Nu male mice, outbred strain, age 6 weeks (Charles River) were injected subcutaneously with a PC-3 cells/Matrigel suspension (1×10^6 cells/mouse). Treatment was started on day 15 after tumor cell injection when the tumors were established and continued on days 22 and 29. […]
A group of 12 tumor bearing mice was sacrificed on day 15 and served as baseline group. All mice were necropsied 35 and 36 days after tumor cell injection. Tumor volumes and bodyweights were recorded twice weekly during the study, as well as overall veterinarian examination of mice was conducted.
Primary tumors, liver, kidney, pancreas, heart, lung, and spleen were collected, fixed in formalin and prepared for histological evaluation. Tumor weights were measured at necropsy, part of the tumors were frozen at −80° C. for LH/CG and LHRH receptor assay determination.

MDA-MB-435S.luc cells = experiment: Cell toxicity (MTT) screening in MDA-MB-435S.luc breast cancer cells; type: cell-based, human; conditions: relative to Phor21-βCG-ala (IC50 2.31 μM)
Description: The human breast cancer cell line MDA-MB-435S.luc, which over expresses chorionic gonadotrophin (CG) and luteinizing hormone-releasing hormone (LHRH) receptors, was used to screen at passage numbers 248-252. The MDA-MB-435S.luc cell line was constructed from the MDA-MB-435S cell line obtained from the American Type Cell Culture Collection by stable transfection with the plasmid PRC/CMV-luc containing the Photinus pyralis luciferase gene and an […] by lipofection. The stably transfected cell line was selected using G418 and the clones with the highest expression for the luciferase gene were tested for their LH and LHRH receptor expression.
MDA-MB435S.luc cells were grown in Leibovitz's L 15 medium, 10% fetal bovine serum, 0.01 mg/ml bovine insulin, 100 IU/ml penicillin, 100 microg/ml streptomycin. The cells were cultured in tight closed flasks. The incubations were conducted using 96 well plates at 10,000 cells per well. Cells were typically seeded into 96 well plates and media was replaced after 48 hours of incubation. Each assay was conducted at increasing concentrations of 0, 0.001, 0.01, 0.05, 0.1, 0.5, 1, 2, 5, 10 and 100 micromolar doses of lytic peptide-binding domain conjugate. […]
Data were processed and analyzed using Graph Pad Prizm 4™ software (Graph Pad Prizm, Inc). Statistical analysis for significance was determined by a two-tailed Student's T-test. […]

MCF-7 xenograft = experiment: MCF-7 breast cancer xenograft; type: in vivo, nude mice; conditions: 2 × 3 wk, 19 d, growth delay
Procedure: as §1
PHOR 18-LHRH (338613) Combination therapies were conducted in a MCF-7 breast cancer xenograft models.
as §2

NIH:3T3 = type: cell-based, mouse; conditions: non cancerous cell line 3T3
Procedure: The breast cancer cell lines studied were MDA-MB435S (estrogen receptor alpha negative), MCF-7 and T47D (estrogen receptor alpha positive), ovarian cancer cell lines (OVCAR-3 and SKOV-3), prostate cancer (LNCaP), the non-malignant breast epithelial cell line MCF-10A and the mouse fibroblast cell line NIH:3T3.
Cells were seeded into 96 well plates at a density of 10,000 cells/well. […] Controls contained USP saline or 0.1% TritonX-100™ as reference for 0 and 100% cell death, respectively. Incubations were terminated by removing the culture media after 2 minutes, 5 minutes, 15 minutes, 30 minutes, 1 hour, 2 hours, 6 hours, 24 and 48 hours. Cell viability was assessed through formazan conversion assay (MTT assay, (CellTiter 96 Aqueous One, Promega # G3582). Formazan conversion was determined using a BioRad Benchmark Plus microplate spectrophotometer dual wavelengths at 490/630 nm at room temperature).
Data were calculated as fraction of absorption in TritonX-100™ containing wells representing 100% cell death versus 0% cell death in saline containing wells. Cytotoxicity was determined as IC50 using GraphPad Prism version 5.01 for Windows, GraphPad Software, San Diego Calif. […] 4 wells of each individual set of two 96 well plates were compared and analyzed. Statistical analysis for significance was determined by a two-tailed Student's T-test.

KFAKFAKKFAKFAKKFAKQHWSYGLRPG [Phor18-LHRH]
dose with significant necrosis in tumors (histology) (MDA-MB-435S xenograft): 0.0002 mg/kg
Median Tumor Weight vs Baseline p < 0.05 (dose) (PC-3 xenograft; PC-3 xenograft, 1 × 3 wk, 21 d): 0.2 mg/kg
tumor volume during treatment (PC-3 xenograft; Phor18-LHRH 0.002-2 mg/kg, CLIP71 5 mg/kg): Tumor volumes decreased during treatment
Increased in vitro activity fold (IC50 of 33/IC50 peptide) (MDA-MB-435S.luc cells): 2.65 fold
Median Tumor Weight vs Saline P < 0.05 (dose) (MCF-7 xenograft): 0.02 mg/kg growth
IC50 (NIH:3T3): > 10 µM
